Results on 7 compounds are retold here after patent US9932381B2, “Exendin-4 derivatives as selective glucagon receptor agonists” (priority 2014, dated 2018).

Non-standard residues stand in square brackets, D forms with d. Residues, ends and D or L forms follow the SMILES beside them. Ala(4-thiazolyl) = N[C@@H](Cc1cscn1)C(=O)O; 1Nal = N[C@@H](Cc1cccc2ccccc12)C(=O)O; Phe(2-F) = N[C@@H](Cc1ccccc1F)C(=O)O; Nle = CCCC[C@H](N)C(=O)O

For the first experiment, the target named is T1, human glucagon receptor (hGLUC R) (Homo sapiens, UniProt P47871).
T1 construct: expressed in transfected cells; host or cells: HEK-293
T1 sequence (P47871 26-477): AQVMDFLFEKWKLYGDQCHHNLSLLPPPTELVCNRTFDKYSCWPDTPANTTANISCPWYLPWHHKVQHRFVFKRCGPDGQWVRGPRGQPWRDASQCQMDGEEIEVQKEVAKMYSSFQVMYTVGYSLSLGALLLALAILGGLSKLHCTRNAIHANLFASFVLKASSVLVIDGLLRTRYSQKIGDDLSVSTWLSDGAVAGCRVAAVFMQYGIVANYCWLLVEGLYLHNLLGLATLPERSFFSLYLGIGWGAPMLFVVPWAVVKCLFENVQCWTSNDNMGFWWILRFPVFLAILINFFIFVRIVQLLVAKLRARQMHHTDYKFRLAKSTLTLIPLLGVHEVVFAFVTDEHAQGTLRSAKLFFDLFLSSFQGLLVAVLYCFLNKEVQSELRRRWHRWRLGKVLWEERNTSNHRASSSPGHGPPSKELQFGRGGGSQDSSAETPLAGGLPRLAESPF
Put plainly: cAMP response (HTRF) of HEK-293 cells stably expressing human glucagon receptor. It counts as cell-based. The conditions noted are these: Table 4; read-out: EC50 hGLUC R. The method, then: cAMP content of cells was determined using a kit from Cisbio Corp. (cat. no. 62AM4PEC) based on HTRF (Homogenous Time Resolved Fluorescence). For preparation, cells were split into T175 culture flasks and grown overnight to near confluency in medium (DMEM/10% FBS). Medium was then removed and cells washed with PBS lacking calcium and magnesium, followed by proteinase treatment with accutase (Sigma-Aldrich cat. no. A6964). Detached cells were washed and resuspended in assay buffer (1×HBSS; 20 mM HEPES, 0.1% BSA, 2 mM IBMX) and cellular density determined. They were then diluted to 400000 cells/ml and 25 μl-aliquots dispensed into the wells of 96-well plates. For measurement, 25 μl of test compound in assay buffer was added to the wells, followed by incubation for 30 minutes at room temperature.
A general note: Time-resolved FRET reads energy transfer from a long-lived donor to a nearby acceptor.
`CCCC[C@H](NC(=O)[C@H](CCC(N)=O)NC(=O)[C@H](CCCCN)NC(=O)[C@H](CO)NC(=O)[C@H](Cc1ccc(O)cc1)NC(=O)[C@H](CC(=O)O)NC(=O)[C@H](CO)NC(=O)[C@@H](NC(=O)[C@H](Cc1ccccc1)NC(=O)[C@@H](NC(=O)CNC(=O)[C@H](CCC(N)=O)NC(=O)[C@H](CO)NC(=O)[C@@H](N)Cc1cscn1)[C@@H](C)O)[C@@H](C)O)C(=O)N[C@@H](CCC(=O)O)C(=O)N[C@@H](CO)C(=O)N[C@@H](CCCNC(=N)N)C(=O)N[C@@H](CCCNC(=N)N)C(=O)N[C@@H](C)C(=O)N[C@@H](CCC(N)=O)C(=O)N[C@@H](CCC(=O)O)C(=O)N[C@@H](Cc1ccccc1)C(=O)N[C@H](C(=O)N[C@@H](CCC(=O)O)C(=O)N[C@@H](Cc1c[nH]c2ccccc12)C(=O)N[C@@H](CC(C)C)C(=O)N[C@@H](CC(C)C)C(=O)N[C@@H](C)C(=O)N[C@H](C(=O)NCC(=O)N1CCC[C@H]1C(=O)N[C@@H](CCC(=O)O)C(=O)N[C@@H](CO)C(=O)NCC(=O)N[C@@H](C)C(=O)N1CCC[C@H]1C(=O)N1CCC[C@H]1C(=O)N1CCC[C@H]1C(=O)N[C@@H](CO)C(=O)O)[C@@H](C)O)[C@@H](C)CC` [SEQ ID NO 17, Tza-S-Q-G-T-F-T-S-D-Y-S-K-Q-Nle-ESRRAQEFIEWLLATGPESGAPPPS-OH]: the EC50 was 1 pM.

Take `CCCC[C@H](NC(=O)[C@H](CCC(N)=O)NC(=O)[C@H](CCCCN)NC(=O)[C@H](CO)NC(=O)[C@H](Cc1ccccc1)NC(=O)[C@H](CC(=O)O)NC(=O)[C@H](CO)NC(=O)[C@@H](NC(=O)[C@H](Cc1ccccc1)NC(=O)[C@@H](NC(=O)CNC(=O)[C@H](CCC(N)=O)NC(=O)[C@H](CO)NC(=O)[C@@H](N)Cc1cscn1)[C@@H](C)O)[C@@H](C)O)C(=O)N[C@@H](CCC(=O)O)C(=O)N[C@@H](CO)C(=O)N[C@@H](CCCNC(=N)N)C(=O)N[C@@H](CCCNC(=N)N)C(=O)N[C@@H](C)C(=O)N[C@@H](CCC(N)=O)C(=O)N[C@@H](CC(=O)O)C(=O)N[C@@H](Cc1ccccc1)C(=O)N[C@H](C(=O)N[C@@H](CCC(=O)O)C(=O)N[C@@H](Cc1c[nH]c2ccccc12)C(=O)N[C@@H](CC(C)C)C(=O)N[C@@H](CC(C)C)C(=O)N[C@@H](C)C(=O)N[C@H](C(=O)NCC(=O)N1CCC[C@H]1C(=O)N[C@@H](CCC(=O)O)C(=O)N[C@@H](CO)C(=O)NCC(=O)N[C@@H](C)C(=O)N1CCC[C@H]1C(=O)N1CCC[C@H]1C(=O)N1CCC[C@H]1C(=O)N[C@@H](CO)C(=O)O)[C@@H](C)O)[C@@H](C)CC` [SEQ ID NO 13, Tza-S-Q-G-T-F-T-S-D-F-S-K-Q-Nle-ESRRAQDFIEWLLATGPESGAPPPS-OH] (H-[Ala(4-thiazolyl)]SQGTFTSDFSKQ[Nle]ESRRAQDFIEWLLATGPESGAPPPS-OH; N-terminus assumed): the EC50 is 3.1 pM. Still for that read-out and setting: in the case of `CC[C@H](C)[C@H](NC(=O)[C@H](Cc1ccccc1)NC(=O)[C@H](CC(=O)O)NC(=O)[C@H](CCC(N)=O)NC(=O)[C@H](C)NC(=O)[C@H](CCCNC(=N)N)NC(=O)[C@H](CCCNC(=N)N)NC(=O)[C@H](CO)NC(=O)[C@H](CCC(=O)O)NC(=O)[C@H](CC(C)C)NC(=O)[C@H](CCC(N)=O)NC(=O)[C@H](CCCCN)NC(=O)[C@H](CO)NC(=O)[C@H](Cc1cccc2ccccc12)NC(=O)[C@H](CC(=O)O)NC(=O)[C@H](CO)NC(=O)[C@@H](NC(=O)[C@H](Cc1ccccc1)NC(=O)[C@@H](NC(=O)CNC(=O)[C@H](CCC(N)=O)NC(=O)[C@H](CO)NC(=O)[C@@H](N)Cc1cscn1)[C@@H](C)O)[C@@H](C)O)C(=O)N[C@@H](CCC(=O)O)C(=O)N[C@@H](Cc1c[nH]c2ccccc12)C(=O)N[C@@H](CC(C)C)C(=O)N[C@@H](CC(C)C)C(=O)N[C@@H](C)C(=O)N[C@H](C(=O)NCC(=O)N1CCC[C@H]1C(=O)N[C@@H](CCC(=O)O)C(=O)N[C@@H](CO)C(=O)NCC(=O)N[C@@H](C)C(=O)N1CCC[C@H]1C(=O)N1CCC[C@H]1C(=O)N1CCC[C@H]1C(=O)N[C@@H](CO)C(=O)O)[C@@H](C)O` [SEQ ID NO 22, Tza-S-Q-G-T-F-T-S-D-1Nal-SKQLESRRAQDFIEWLLATGPESGAPPPS-OH] (H-[Ala(4-thiazolyl)]SQGTFTSD[1Nal]SKQLESRRAQDFIEWLLATGPESGAPPPS-OH; N-terminus assumed) it was 1 pM; in that of `CCCC[C@H](NC(=O)[C@H](CCC(N)=O)NC(=O)[C@H](CCCCN)NC(=O)[C@H](CO)NC(=O)[C@H](Cc1ccccc1F)NC(=O)[C@H](CC(=O)O)NC(=O)[C@H](CO)NC(=O)[C@@H](NC(=O)[C@H](Cc1ccccc1)NC(=O)[C@@H](NC(=O)CNC(=O)[C@H](CCC(N)=O)NC(=O)[C@H](CO)NC(=O)[C@@H](N)Cc1cscn1)[C@@H](C)O)[C@@H](C)O)C(=O)N[C@@H](CCC(=O)O)C(=O)N[C@@H](CO)C(=O)N[C@@H](CCCNC(=N)N)C(=O)N[C@@H](CCCNC(=N)N)C(=O)N[C@@H](C)C(=O)N[C@@H](CCC(N)=O)C(=O)N[C@@H](CC(=O)O)C(=O)N[C@@H](Cc1ccccc1)C(=O)N[C@H](C(=O)N[C@@H](CCC(=O)O)C(=O)N[C@@H](Cc1c[nH]c2ccccc12)C(=O)N[C@@H](CC(C)C)C(=O)N[C@@H](CC(C)C)C(=O)N[C@@H](C)C(=O)N[C@H](C(=O)NCC(=O)N1CCC[C@H]1C(=O)N[C@@H](CCC(=O)O)C(=O)N[C@@H](CO)C(=O)NCC(=O)N[C@@H](C)C(=O)N1CCC[C@H]1C(=O)N1CCC[C@H]1C(=O)N1CCC[C@H]1C(=O)N[C@@H](CO)C(=O)O)[C@@H](C)O)[C@@H](C)CC` [SEQ ID NO 18, Tza-S-Q-G-T-F-T-S-D-2FPhe-S-K-Q-Nle-ESRRAQDFIEWLLATGPESGAPPPS-OH] (H-[Ala(4-thiazolyl)]SQGTFTSD[Phe(2-F)]SKQ[Nle]ESRRAQDFIEWLLATGPESGAPPPS-OH), 3.1 pM.

The same experiment, now with this note: Table 5, Tza vs. His in position 1; read-out: EC50 hGlucagon-R.
“H-HSQGTFTSDLSKQLESRRAQEFIEWLLATGPESGAPPPS-OH [SEQ ID NO 34, HSQGTFTSDLSKQLESRRAQEFIEWLLATGPESGAPPPS-OH, reference compound]”: the EC50 worked out at 1.4 pM. For the compound `CCCC[C@H](NC(=O)[C@H](CCC(N)=O)NC(=O)[C@H](CCCCN)NC(=O)[C@H](CO)NC(=O)[C@H](CC(C)C)NC(=O)[C@H](CC(=O)O)NC(=O)[C@H](CO)NC(=O)[C@@H](NC(=O)[C@H](Cc1ccccc1)NC(=O)[C@@H](NC(=O)CNC(=O)[C@H](CCC(N)=O)NC(=O)[C@H](CO)NC(=O)[C@@H](N)Cc1c[nH]cn1)[C@@H](C)O)[C@@H](C)O)C(=O)N[C@@H](CCC(=O)O)C(=O)N[C@@H](CO)C(=O)N[C@@H](CCCNC(=N)N)C(=O)N[C@@H](CCCNC(=N)N)C(=O)N[C@@H](C)C(=O)N[C@@H](CCC(N)=O)C(=O)N[C@@H](CCC(=O)O)C(=O)N[C@@H](Cc1ccccc1)C(=O)N[C@H](C(=O)N[C@@H](CCC(=O)O)C(=O)N[C@@H](Cc1c[nH]c2ccccc12)C(=O)N[C@@H](CC(C)C)C(=O)N[C@@H](CC(C)C)C(=O)N[C@@H](C)C(=O)N[C@H](C(=O)NCC(=O)N1CCC[C@H]1C(=O)N[C@@H](CCC(=O)O)C(=O)N[C@@H](CO)C(=O)NCC(=O)N[C@@H](C)C(=O)N1CCC[C@H]1C(=O)N1CCC[C@H]1C(=O)N1CCC[C@H]1C(=O)N[C@@H](CO)C(=O)O)[C@@H](C)O)[C@@H](C)CC` [SEQ ID NO 36, H-S-Q-G-T-F-T-S-D-L-S-K-Q-Nle-ESRRAQEFIEWLLATGPESGAPPPS-OH, reference compound] (H-HSQGTFTSDLSKQ[Nle]ESRRAQEFIEWLLATGPESGAPPPS-OH), the EC50 is 1.4 pM. Same read-out and setting: the result for `CC[C@H](C)[C@H](NC(=O)[C@H](Cc1ccccc1)NC(=O)[C@H](CCC(=O)O)NC(=O)[C@H](CCC(N)=O)NC(=O)[C@H](C)NC(=O)[C@H](CCCNC(=N)N)NC(=O)[C@H](CCCNC(=N)N)NC(=O)[C@H](CO)NC(=O)[C@H](CCC(=O)O)NC(=O)[C@H](CC(C)C)NC(=O)[C@H](CCC(N)=O)NC(=O)[C@H](CCCCN)NC(=O)[C@H](CO)NC(=O)[C@H](Cc1ccc(O)cc1)NC(=O)[C@H](CC(=O)O)NC(=O)[C@H](CO)NC(=O)[C@@H](NC(=O)[C@H](Cc1ccccc1)NC(=O)[C@@H](NC(=O)CNC(=O)[C@H](CCC(N)=O)NC(=O)[C@H](CO)NC(=O)[C@@H](N)Cc1c[nH]cn1)[C@@H](C)O)[C@@H](C)O)C(=O)N[C@@H](CCC(=O)O)C(=O)N[C@@H](Cc1c[nH]c2ccccc12)C(=O)N[C@@H](CC(C)C)C(=O)N[C@@H](CC(C)C)C(=O)N[C@@H](C)C(=O)NCC(=O)NCC(=O)N1CCC[C@H]1C(=O)N[C@@H](CCC(=O)O)C(=O)N[C@@H](CO)C(=O)NCC(=O)N[C@@H](C)C(=O)N1CCC[C@H]1C(=O)N1CCC[C@H]1C(=O)N1CCC[C@H]1C(=O)N[C@@H](CO)C(=O)O` [SEQ ID NO 28, HSQGTFTSDYSKQLESRRAQEFIEWLLAGGPESGAPPPS-OH, reference compound] reads 1 pM.

By EC50 is commonly meant the concentration giving half of the maximal effect.
